This note sets out measurements from PubChem BioAssay (NCI).

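Briefly, cells in 96-well plates were exposed to five compound concentrations for 48 h, and endpoints were estimated by linear interpolation. Here, GI50 denotes the concentration required for 50% inhibition of growth. Definition used: TGI = concentration required for complete inhibition of growth.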

Among the test systems are IGROV1 ovarian; SW-620 colon; A498 renal; KM12 colon; MDA-MB-435; SF-295 CNS; A549 NSCLC; HOP-62 NSCLC; EKVX NSCLC.
What all share (experiment): inhibition of tumour cell growth, NCI panel, 48 h

For the compound `NC(=O)NCCSC1CCCCC1O` (configuration not stated), the TGI in the test on IGROV1 ovarian, in the test on SW-620 colon, in the test with A498 renal, in the test with KM12 colon, with MDA-MB-435 and in the test on SF-295 CNS was over 100 µM throughout. Further, the TGI with A549 NSCLC, in the test with HOP-62 NSCLC and in the test with EKVX NSCLC was over 100 µM each time.

Consider `Cc1ccc2[nH]c(C(=O)NN3C(=O)C(C)SC34CCCCC4C)c(-c3ccccc3)c2c1` (configuration not stated), for which the GI50 with SW-620 colon was 19.8 µM; in the test with A498 renal, 15 µM; in the test with KM12 colon it was 18.5 µM; in the test with MDA-MB-435 it was 16.4 µM; with SF-295 CNS it was 17.8 µM; in the test on A549 NSCLC, 15.9 µM. Moreover, the values for the GI50 with HOP-62 NSCLC and in the test on EKVX NSCLC were 20.2 µM and 24.5 µM, respectively. Besides, the TGI in the test on SW-620 colon amounted to 53.2 µM; in the test on A498 renal, 32 µM; with KM12 colon, 39.9 µM; in the test on MDA-MB-435, 33.1 µM; with SF-295 CNS, 35.5 µM; in the test with A549 NSCLC it was 32.9 µM. Also, the figures for the TGI in the test on HOP-62 NSCLC and with EKVX NSCLC were 37.7 µM and 61.9 µM, respectively.

Turning to `CCC[CH2][Sn]1([CH2]CCC)[O]C(=O)CN=Cc2ccccc2[O]1`, the GI50 in the test with IGROV1 ovarian is 2.27 µM; in the test on SW-620 colon it was 0.175 µM; in the test with KM12 colon, 0.695 µM; with SF-295 CNS, 1.14 µM; with A549 NSCLC, 1.81 µM; in the test with HOP-62 NSCLC, 4.01 µM. Besides, in the test on EKVX NSCLC, the GI50 is 0.477 µM. For the same compound, the TGI with IGROV1 ovarian is over 100 µM; with SW-620 colon, 0.434 µM; with KM12 colon, 2.18 µM; in the test on SF-295 CNS, 2.37 µM; in the test with A549 NSCLC, 3.55 µM; in the test with HOP-62 NSCLC it was over 100 µM. For the same compound, in the test with EKVX NSCLC, the TGI is 1.81 µM.

`C[Si]12OCCCN(CCO1)CCO2`: the TGI in the test with IGROV1 ovarian, with SW-620 colon, with A498 renal, in the test on KM12 colon, in the test on SF-295 CNS and in the test with A549 NSCLC was over 100 µM in each case. This compound also returned a TGI with EKVX NSCLC of over 100 µM.

As for `COc1ccccc1NC(=O)CC(=O)NNCC(=O)Nc1nnc(-c2ccccc2)o1`, the TGI in the test on IGROV1 ovarian, in the test on SW-620 colon, with A498 renal, with KM12 colon, in the test with SF-295 CNS and in the test on A549 NSCLC was over 100 µM throughout. For the same compound, the TGI with HOP-62 NSCLC and with EKVX NSCLC was over 100 µM throughout.

With `NC(N)=N/N=C/c1c(-c2ccc(Cl)c([N+](=O)[O-])c2)nc2ccccn12`, the GI50 with IGROV1 ovarian is 1.36 µM; in the test on SW-620 colon it was 1.46 µM; in the test with A498 renal, 5.82 µM; with SF-295 CNS, 1.82 µM; with A549 NSCLC, 1.63 µM; in the test with HOP-62 NSCLC, 1.56 µM. Moreover, the GI50 in the test on EKVX NSCLC was 2.5 µM. In addition, the TGI is 2.85 µM with IGROV1 ovarian; 3.16 µM with SW-620 colon; 14.4 µM with A498 renal; 3.42 µM in the test on SF-295 CNS; 2.99 µM in the test on A549 NSCLC; 2.9 µM in the test with HOP-62 NSCLC. In the test with EKVX NSCLC, this compound gave a TGI of 13 µM.

Regarding `CCOC(=O)[C@H]1Nc2ccc(Cl)cc2[C@H]2c3ccccc3O[C@H]21`, the TGI in the test with IGROV1 ovarian, in the test with SW-620 colon, in the test on KM12 colon, in the test on SF-295 CNS, in the test with A549 NSCLC and in the test with HOP-62 NSCLC was over 100 µM each time. In the test with EKVX NSCLC, this compound returned a TGI of over 100 µM.

Consider `CCCCCCN1CCN(Cc2ccc(N(CC)CC)cc2)C(=O)C1=O`, for which the GI50 is 6.63 µM in the test with IGROV1 ovarian; 3.07 µM with SW-620 colon; 0.973 µM in the test on A498 renal; 2.47 µM with KM12 colon; 0.448 µM with MDA-MB-435; 3.02 µM in the test with SF-295 CNS. Moreover, the GI50 with A549 NSCLC is 4.29 µM; with HOP-62 NSCLC, 4.97 µM. The TGI with IGROV1 ovarian was over 100 µM; in the test on SW-620 colon it was over 100 µM; in the test with A498 renal, 5.77 µM; in the test with KM12 colon, 82.4 µM; in the test with MDA-MB-435, 2.38 µM; with SF-295 CNS it was over 100 µM. Besides, the TGI with A549 NSCLC and in the test with HOP-62 NSCLC was over 100 µM each time.

In the case of `O=C1C=CC(=O)c2c1ncc1c2nc2sccn21`, the GI50 in the test with IGROV1 ovarian was 22.7 µM; in the test on SW-620 colon, 14.7 µM; in the test with KM12 colon, over 100 µM; in the test on MDA-MB-435, 16.3 µM; with SF-295 CNS it was 48.3 µM; with A549 NSCLC, 52.4 µM. The GI50 is 21.2 µM in the test on HOP-62 NSCLC and 20.2 µM in the test with EKVX NSCLC. Besides, the TGI in the test with IGROV1 ovarian was 56.6 µM; in the test with SW-620 colon, 77.7 µM; in the test on KM12 colon, over 100 µM; in the test with MDA-MB-435, 39.2 µM; with SF-295 CNS, over 100 µM; with A549 NSCLC it was over 100 µM. Also, the TGI with HOP-62 NSCLC was found to be 47.4 µM; in the test on EKVX NSCLC, 44.7 µM.

For `COc1cc(OC)cc(-c2cncn2-c2ccc(-c3nc4cc(OC)cc(OC)c4s3)cc2)c1`, the GI50 is 5.07 µM with IGROV1 ovarian; 3.15 µM in the test on A498 renal; 4.52 µM in the test with KM12 colon; 2.4 µM with SF-295 CNS; 6.65 µM with HOP-62 NSCLC. The TGI in the test on IGROV1 ovarian was over 100 µM; with A498 renal, over 100 µM; in the test with KM12 colon it was over 100 µM; with SF-295 CNS, 43.1 µM; with HOP-62 NSCLC, 34.5 µM.
